Experimental data published in PMC11249646, “Small-Molecule Disruptors of the Interaction between Calcium- and Integrin-Binding Protein 1 and Integrin αIIbβ3 as Novel Antiplatelet Agents” (ACS Pharmacology & Translational Science, 2024).
Read-outs that look alike come from different tables or passages of the source.

Columns and labels:
[1] = biological target: T1, CIB1 and αIIb interaction (CIB1-GST : F-αIIb peptide) (Homo sapiens, UniProt Q99828); assay: FP assay, 1536-well qHTS format (primary and confirmatory screen); type: binding; conditions: for Curve Class (confirmatory screen) / CONFIRMATORY SCREEN Curve Class: qHTS curve class
T1 construct: made in house; host or cells: BL-21 plus RIL cells (E. coli)
T1 sequence (Q99828 1-191): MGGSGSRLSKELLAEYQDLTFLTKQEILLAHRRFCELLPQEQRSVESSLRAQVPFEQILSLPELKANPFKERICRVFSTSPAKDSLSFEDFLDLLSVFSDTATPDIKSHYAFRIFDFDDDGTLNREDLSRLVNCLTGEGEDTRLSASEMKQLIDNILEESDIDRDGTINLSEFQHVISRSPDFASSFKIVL

[2] = biological target: T2, GST-CIB1 : F-scrambled peptide (Homo sapiens, UniProt Q99828); assay: FP scrambled-peptide counter screen, 1536-well format; type: binding; conditions: for Curve Class (counterscreen) / COUNTERSCREEN Curve Class: qHTS curve class; for IC50: read-out: IC50 [μM] (counterscreen)
T2 construct: made in house; host or cells: BL-21 plus RIL cells (E. coli)
T2 sequence (Q99828 1-191): T1 sequence (Q99828 1-191)

[3] = Table S3, confirmatory screen, YES/NO call
[4] = Table S3, confirmatory screen, a negative sign marks inhibitory curves
[5] = Table S3, confirmatory screen, negative = inhibition
[6] = Table S3, confirmatory screen, read-out: IC50 [μM] (confirmatory screen)
[7] = qHTS primary screen hits, Table S2, negative = inhibition
[8] = qHTS primary screen hits, Table S2, read-out: IC50
[9] = Table S3, counterscreen, a negative sign marks inhibitory curves
[10] = Table S3, counterscreen, negative = inhibition
[11] = confirmatory screen, negative sign = inhibitory curve
[12] = confirmatory screen, read-out: IC50 [μM] (confirmatory screen)
[13] = qHTS primary screen hits, Table S2, negative sign = inhibitory curve, several classes where COUNT > 1
[14] = counterscreen, negative sign = inhibitory curve
[15] = qHTS FP screen hits, Table S2, negative = inhibition
[16] = qHTS FP screen hits, Table S2, one class per curve where COUNT > 1, negative sign = inhibitory curve
[17] = qHTS FP screen hits, Table S2, read-out: IC50

SMILES	Curve Class (confirmatory screen) [1, 4]	Efficacy (%) (confirmatory screen) [1, 5]	Efficacy (%) [1, 7] [%]	IC50 [1, 8] [µM]	Curve Class (counterscreen) [2, 9]	Efficacy (%) (counterscreen) [2, 10]	IC50 ([2]; Table S3, counterscreen) [µM]	Efficacy (%) (confirmatory screen) ([1]; confirmatory screen)	Confirm? (confirmatory screen) ([1]; confirmatory screen, YES/NO)	Curve Class (confirmatory screen) [1, 11]	Curve Class [1, 13]	Efficacy (%) (counterscreen) ([2]; counterscreen)	Curve Class (counterscreen) [2, 14]	IC50 ([2]; counterscreen) [µM]	Efficacy (%) [1, 15] [%]	Curve Class [1, 16]	IC50 [1, 17] [µM]	further results
COc1cccc(C(=O)c2no[n+]([O-])c2C(=O)c2cccc(OC)c2)c1 [NCGC00351157-02]	-1.4	-52	-53	22.2	-1.2	-60	17.8	–	–	–	–	–	–	–	–	–	–	Confirm? (confirmatory screen) [1, 3]: YES; IC50 [1, 6]: 12.6 µM
Cc1ccccc1C(=O)N1CCc2cc(-c3nc(NC(=O)Cc4ccc(OCCOCCOCCN)cc4)sc3C)ccc21.O=C(O)C(F)(F)F [NCGC00351618-01]	–	–	-25	17.8	–	–	–	-41	YES	-1.2	-1.4	-31	-2.4	11.2	–	–	–	IC50 [1, 12]: 39.8 µM
Cn1ccc(=Nc2ccc(NC(=O)c3ccc(/N=c4\ccn(C)c5ccc([N+](=O)[O-])cc45)cc3[N+](=O)[O-])cc2)cc1.O=C(O)C(F)(F)F [NCGC00356066-02]	–	–	-65	39.8	–	–	–	-82	YES	-1.2	-2.2	-46	-1.2	12.6	–	–	–	–
Cc1cc(/N=N/c2ccc(S(=O)(=O)Nc3ccccn3)cc2)c(N)cc1O [NCGC00356068-01]	–	–	–	–	–	–	–	-64	YES	-2.2	–	-44	-1.2	44.7	-50	-2.2	35.5	IC50 [1, 12]: 39.8 µM
O=C(O)C(F)(F)F.O=C(O)c1csc(-n2nc(-c3ccc(F)c(F)c3)c3cccc(O)c32)n1 [NCGC00356386-01]	–	–	–	–	–	–	–	–	–	–	–	–	–	–	-22	–	3.2	CONFIRMATORY SCREEN Efficacy (%) ([1]; confirmatory screen): -21%; CONFIRMATORY SCREEN Curve Class ([1]; confirmatory screen): 4; COUNTERSCREEN Efficacy (%) ([2]; counterscreen): 0%; COUNTERSCREEN Curve Class ([2]; counterscreen): 4
NC(=O)c1ccc(Cc2c(-c3cccc(-c4ccccc4)c3)nn(-c3nc(C(=O)O)cs3)c2O)cc1.O=C(O)C(F)(F)F [NCGC00356638-01]	–	–	-59	56.2	–	–	–	-125	YES	-2.1	-2.2	-60	-2.2	44.7	–	–	–	IC50 [1, 12]: 70.8 µM
O=C(O)C(F)(F)F.O=C(O)c1ccc(Cc2c(-c3cccc(-c4ccccc4)c3)nn(-c3nc(C(=O)O)cs3)c2O)cc1 [NCGC00356639-01]	-2.2	-79	-39	39.8	-2.1	-99	39.8	–	–	–	-2.2	–	–	–	–	–	–	Confirm? (confirmatory screen) [1, 3]: YES; IC50 [1, 6]: 50.1 µM
O=C(O)c1csc(-n2nc(-c3ccc(F)c(F)c3)c3cccnc32)n1 [NCGC00356667-01]	4	-16	–	–	3	64	89.1	–	–	–	–	–	–	–	-32	-1.2	3.5	–
NS(=O)(=O)c1ccc(Cc2cn(-c3nc(C(=O)O)cs3)nc2-c2ccc(F)c(F)c2)cc1.O=C(O)C(F)(F)F [NCGC00356753-01]	4	-27	-29	31.6	–	54	56.2	–	–	–	-2.4	–	–	–	–	–	–	–
O=C(NC1=CC(=O)c2ccccc2C1=O)c1ccccc1.O=C(O)C(F)(F)F [NCGC00357425-01]	–	–	-92	25.1	–	–	–	-159	YES	-1.1	–	-113	-1.1	11.2	–	–	–	IC50 [1, 12]: 11.2 µM; Curve Class ([1]; qHTS primary screen hits, Table S2, negative sign = inhibitory curve): -1.1
CN1CCN([C@H]2CC[C@H](n3cc(-c4ccc(Oc5ccccc5)cc4)c4c(N)ncnc43)CC2)CC1.Cl [NCGC00370980-02]	–	–	–	–	–	–	–	-44	YES	-2.2	–	-17	4	–	-56	-2.2	50.1	Confirm? (counterscreen) ([2]; counterscreen, YES/NO): YES
COc1ccccc1Nc1ccc2c(O)cc(S(=O)(=O)O)cc2c1.O=C(O)C(F)(F)F [NCGC00372954-01]	-2.1	-93	–	–	-2.4	-89	22.4	–	–	–	–	–	–	–	-41	-2.2	35.5	Confirm? (confirmatory screen) [1, 3]: YES; IC50 [1, 6]: 25.1 µM
O=C1C=CC(=O)N1c1ccc(N2CCOCC2)cc1 [NCGC00373122-01]	–	–	-33	28.2	–	–	–	–	–	–	-2.4	–	–	–	–	–	–	CONFIRMATORY SCREEN Efficacy (%) ([1]; confirmatory screen): -44%; CONFIRMATORY SCREEN Curve Class ([1]; confirmatory screen): 4; COUNTERSCREEN Efficacy (%) ([2]; counterscreen): -8%; COUNTERSCREEN Curve Class ([2]; counterscreen): 4
C=C1C(=O)OC2C(OC(=O)C=C(C)C)C(C)=C3C(=O)C=C(C)C3C(O)C12 (stereo not shown) [NCGC00380563-01]	-1.2	-43	–	–	-1.2	-47	2.2	–	–	–	–	–	–	–	-32	-1.2	2.5	Confirm? (confirmatory screen) [1, 3]: YES; IC50 [1, 6]: 2 µM
CC(=O)c1c(O)cc2c(c1C)C(=O)CC(O)C2 (stereo not shown) [NCGC00380695-01]	4	-25	–	–	-3	0	–	–	–	–	–	–	–	–	-53	-2.2	56.2	–
C=C1C(=O)O[C@@H]2[C@H]3C(C)=CC(=O)C3=C(C)[C@@H](OC(=O)/C(C)=C\C)[C@H](O)[C@@H]12 [NCGC00380702-01]	–	–	–	–	–	–	–	-43	YES	-1.2	–	-39	-1.2	1.6	-35	-1.2	3.5	IC50 [1, 12]: 1.6 µM
CC1(C)C=CN2C(=O)C3=CCCN3C(=O)[C@@H]2C[C@@]12Nc1ccccc1C2=O [NCGC00380729-01]	–	–	–	–	–	–	–	-68	YES	-2.2	–	-55	-2.2	39.8	-42	-2.2	44.7	–
